Measurements reported in US20020082249A1, “Prodrugs of aspartyle protease inhibitors” (priority 1997, published 2002).

Experiments:
[1] = Pharmacokinetics in Sprague-Dawley rats following single oral dose; conditions: for Cmax / half-life: both, Sprague-Dawley, rat, in vivo, po; for AUC: rats
[2] = Similar oral pharmacokinetic study on dogs (solid capsule and solution formulations); conditions: dog, in vivo, 17 mg/kg

Compound | Cmax ([1]; 41 mg/kg) [µM] | half-life ([1]; 41 mg/kg) [h] | Cmax ([1]; 50 mg/kg) [µM] | half-life ([1]; 50 mg/kg) [h] | AUC ([1]; VX-478 41 mg/Kg PO, vehicle 33% TPGS/PEG 400/PG) [ug*hr/m1] | AUC ([1]; VX-478 50 mg/Kg PO, vehicle 12.5% TPGS/PEG 400/PG) [ug*hr/m1] | AUC [2] [ng·h/mL] | Cmax [2] [ng/mL] | Tmax [2] [h] | compound 229 detected in blood samples ([1]; after oral administration, first time point blood sample or later samples, suggests first pass metabolism to VX-478) | delivery of VX-478, aqueous dose of 229 versus VX-478 formulations ([1]; aqueous dose of compound 229 compared with the two non-aqueous formulations used for VX-478) | bioavailability, aqueous solution versus other vehicles ([1]; oral administration of compound 229 as an aqueous solution, in comparison to the other vehicles studied) | AUC ([1]; compound 229 PO, 40 mg/Kg molar equiv. of VX-478, vehicle H2O:PG:EtOH 5:4:1) [ug*hr/m1] | AUC ([1]; compound 229 PO, 40 mg/Kg molar equiv. of VX-478, vehicle H2O, VX-478 measured in plasma) [ug*hr/m1] | AUC ([1]; compound 229 PO, 40 mg/Kg molar equiv. of VX-478, vehicle PEG 400) [ug*hr/m1] | AUC ([1]; compound 229 PO, 40 mg/Kg molar equiv. of VX-478, vehicle TPGS/PEG 400/PG) [ug*hr/m1]
CC(C)CN(C[C@@H](O)[C@H](Cc1ccccc1)NC(=O)O[C@H]1CCOC1)S(=O)(=O)c1ccc(N)cc1 [VX-478] | 14 | 2.5 | 6 | 2.2 | 29.6 | 16.2 | 23500 ± 7400 | 6800 ± 1100 | 1 ± 0.8 |  |  |  |  |  |  | 
CC(C)CN(C[C@@H](OP(=O)(O)O)[C@H](Cc1ccccc1)NC(=O)O[C@H]1CCOC1)S(=O)(=O)c1ccc(N)cc1 [Compound 229] |  |  |  |  |  |  |  |  |  | none of that compound was detected | equivalence in delivery | improved bioavailability | 10.6 | 11.7 | 7.4 | 8.2
